Data taken from US20210000814A1, “RIMEGEPANT FOR CGRP RELATED DISORDERS” (Biohaven Pharmaceutical Holding Company Ltd., priority 2018, published 2021).

Experiments:
[1] = test system: subjects with Acute Migraines; assay: BHV3000-301 Phase 3 trial, acute treatment of migraine: efficacy; format: in vivo, human; conditions: Study 301; P<0.0001
Experimental: Clinical Trial—BHV3000-301: Phase 3: Double-Blind, Randomized, Placebo-Controlled, Safety and Efficacy Trial of BHV-3000 (Rimegepant) for the Acute Treatment of Migraine (ClinicalTrials.gov Identifier: NCT03235479). A phase 3 clinical study was conducted with 1490 participants, as follows. […] Pain freedom of rimegepant (75 mg tablet) compared with placebo in the acute treatment of migraine will be measured using the number of evaluable subjects that report no pain at 2 hours post-dose. [Time Frame: Two hours post dose] • Pain will be measured on a 4 point Likert scale (0=none, 1=mild, 2=moderate, 3=severe) • 2. Freedom from the most bothersome symptom (MBS) of rimegepant (75 mg tablet) compared with placebo will be measured using the number of evaluable subjects that report the absence of their MBS at 2 hours post-dose. [Time Frame: Two hours post dose] • The MBS (nausea, phonophobia or photophobia) will measured using a binary scale (0=absent, 1=present). […] [Time Frame: 2 hours -24 hours post-dose] • Sustained Pain Freedom as measured by a 4 point numeric rating scale (None, Mild, Moderate, Severe) • 2. […] [Time Frame: 2 hours post-dose] • Pain Relief as measured by a 4 point numeric rating scale (None, Mild, Moderate, Severe) • 5. […] Sustained Pain Relief as measured by a 4 point numeric rating scale (None, Mild, Moderate, Severe) • 9. […]

[2] = human, in vivo
Experimental: Clinical Trial—BHV3000-303: Phase 3: Double-Blind, Randomized, Placebo-Controlled, Safety and Efficacy Trial of BHV-3000 (Rimegepant) Orally Discintegrating Tablet (ODT) for the Acute Treatment of Migraine (ClinicalTrials.gov Identifier: NCT03461757) • A phase 3 clinical study was conducted with 1812 participants, as follows.
Study Design • Study Type: Interventional (Clinical Trial) • Actual Enrollment: 1812 participants • Allocation: Randomized • Intervention Model: Parallel Assignment • Masking: Triple (Participant, Care Provider, Investigator) • Primary Purpose: Treatment • Official Title: BHV3000-303: Phase 3, Double-Blind, Randomized, Placebo Controlled, Safety and Efficacy Trial of BHV-3000 (Rimegepant) Orally Disintegrating Tablet (ODT) for the Acute Treatment of Migraine • Actual Study Start Date: Feb. 27, 2018 • Actual Primary Completion Date: Oct. 8, 2018 • Actual Study Completion Date: Oct. 15, 2018

[3] = Pooled safety data (AEs, liver function tests) of Studies 301, 302 and 303; format: in vivo, human
patients with migraine = assay: BHV3000-201: reduction in headache days (migraines) per month, treatment vs observation phase; format: in vivo, human
Source text: Study Design • Study Type: Interventional (Clinical Trial) • Estimated Enrollment: 2000 participants • Intervention Model: Single Group Assignment • Masking: None (Open Label) • Primary Purpose: Treatment • Official Title: A Multicenter, Open Label Long-Term Safety Study of BHV3000 in the Acute Treatment of Migraine • Actual Study Start Date: Aug. 30, 2017 • Estimated Primary Completion Date: July 2019 • Estimated Study Completion Date: July 2019 In addition to the interim safety analysis, data from subjects was assessed to determine reductions in the number of headache days per month.

[4] = pooled 301, 302, 303, n = 1,771

N[C@@H]1c2cccnc2[C@H](OC(=O)N2CCC(n3c(=O)[nH]c4ncccc43)CC2)CC[C@H]1c1cccc(F)c1F [Rimegepant, [(55,65,9R)-5-amino-6-(2,3-difluorophenyl)-6,7,8,9-tetrahydro-5H-cyclohepta[b]pyridin-9-yl]4-(2-oxo-3H-imidazo[4,5-b]pyridin-1-yl)piperidine-1-carboxylate]
patients achieving normal function at 2 hours (functional disability) versus placebo [1]: greater proportion | LFTs >3xULN [2]: one patient | safety and tolerability [2]: consistent with the profile previously observed in Study 301 | highest incidence of any single adverse event (AE) ([2]; 48 h): ≤ 1.6% | bilirubin elevations > 2x ULN ([3]; across Studies 301, 302 and 303): no patients | ALT or AST >5x ULN, number of patients ([3]; pooled 301, 302, 303, AST elevation deemed not drug-related): 1 | ALT or AST >3x ULN, number of patients [3, 4]: 2 | ALT or AST >3x ULN, percent [3, 4]: (0.1%) | ALT or AST >5x ULN, percent [3, 4]: (0.06%) | ALT or AST >10x ULN, number of patients [3, 4]: 0 | ALT or AST >20x ULN, number of patients [3, 4]: 0 | ALT or AST >ULN, number of patients [3, 4]: 48 | ALT or AST >ULN, percent [3, 4]: (2.7%) | subjects with > = 20.0% decrease, number (patients with migraine; Overall, n 1731): 683 | subjects with > = 25.0% decrease, number (patients with migraine; Overall, n 1731): 602 | subjects with > = 30.0% decrease, number (patients with migraine; Overall, n 1731): 523 | subjects with > = 35.0% decrease, number (patients with migraine; Overall, n 1731): 442 | subjects with > = 40.0% decrease, number (patients with migraine; Overall, n 1731): 362 | subjects with > = 45.0% decrease, number (patients with migraine; Overall, n 1731): 287 | subjects with > = 50.0% decrease, number (patients with migraine; Overall, n 1731): 226 | onset of reductions in the mean number of headache days per month (patients with migraine; Study 201): as early as the first month
